From ChEMBL document CHEMBL1201862, “PubChem BioAssay data set” (2004)
Active and inactive are the calls of the source.

Assays:
HEK293 = assay: viability loss in HEK293T cells – cell-based, ATP luminescence, cherry-pick samples, cytotoxicity control, dose response (AID 687005); assay type: functional; conditions: Homo sapiens;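 also: cells exposed to compound for 48 hours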
[1] = HEK293 Cytotoxicity Assay Measured in Cell-Based System Using Plate Reader - 7071-01_Inhibitor_Dose_CherryPick_Activity_Set2.; assay type: functional
[2] = P. falciparum Dd2 growth inhibitors, dose response, SYBR Green, cherry-picked samples (AID 1159567); assay type: functional, cell-based
[3] = toxicity to human hepatoma HepG2 cells – cell-based, cherry-picked samples, cytotoxicity control, dose response (AID 1159577); assay type: functional
[4] = blockers of HIV-1 ZM109 envelope-driven cell-cell fusion – HeLa effector, CEM target cells, luciferase, cherry-pick, dose response (AID 652058); assay type: functional, cell-based;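 also: luciferase signal from HIV-1 Env mediated cell-cell fusion of effector and target cells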
[5] = inhibition of Env-driven cell fusion – HIV entry, plate reader, dry powder, dose response (AID 687023); assay type: functional, cell-based
[6] = blockers of HIV-1 envelope-mediated cell-cell fusion – cherry-pick, dose response (AID 652057); assay type: functional, cell-based
[7] = HIV-1 AD8 envelope cell-cell fusion blockers – cherry-pick, dose response (AID 652062); assay type: functional, cell-based;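 also: luciferase signal from cell-cell fusion driven by HIV-1 clade B AD8 Env; potency is for inhibitors of fusion seen as a drop in luminescence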
[8] = viability loss in CEM21 cells – cell-based, plate reader, dry powder, cytotoxicity control, dose response (AID 687026); assay type: functional
[9] = reduced cellular PGC1a acetyl-lysine signal – cell-based, cherry-picked samples, dose response (AID 720514); assay type: functional;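 also: potency may reflect raised or lowered acetylation signal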
[10] = Late stage assay provider results from the probe development effort to identify inhibitors of the Plasmodium falciparum M18 Aspartyl Aminopeptidase (M18AAP): radiolabel-based cell-based dose response assay to identify compounds that inhibit P. falciparum growth in RBCs, Set 2..; assay type: functional
[11] = Dd2 parasite growth inhibition in erythrocytes – SYBR Green, dry powder samples, set 4, dose response (AID 1159572); assay type: functional, cell-based
[12] = Dd2 parasite growth inhibition in erythrocytes – SYBR Green, dry powder samples, set 9, dose response (AID 1159568); assay type: functional, cell-based
[13] = target: RNA-editing ligase 1, mitochondrial (Trypanosoma brucei brucei, UniProt P86926); assay: inhibition of trypanosome RNA editing ligase – biochemical, fluorescence, Trypanosoma brucei, dose response (AID 1117295); assay type: functional
[14] = cytotoxicity toward HT-29 cells – cell-based, CellTiter-Glo luminescence, IC50, dose response (AID 1117330); assay type: functional
[15] = SNU-C1 cell viability reduction, dose response, CellTiter-Glo luminescence (AID 1117323); assay type: functional, cell-based
[16] = cytotoxicity toward HCT116 cells – cell-based, CellTiter-Glo luminescence, IC50, dose response (AID 1117332); assay type: functional; conditions: HCT-116
[17] = rise of 4N DNA cells, HeLa – IC50, dose response (AID 1117351); assay type: functional, cell-based
[18] = RKO cell viability reduction, dose response, CellTiter-Glo luminescence (AID 1117322); assay type: functional
[19] = CellTiter-Glo luminescence survival assay, SW480 colon tumor line, concentration-response curve, half-maximal inhibitory concentration (AID 1117338); assay type: functional
[20] = Reduced DLD-1 viability, concentration-response, CellTiter-Glo luminescence (AID 1117352); assay type: functional
[21] = HCT116 cell viability decrease, GSK3B pretreatment – CellTiter-Glo, IC50, dose response (AID 1117339); assay type: functional; conditions: HCT-116
[22] = rise of 2N DNA cells, HeLa – IC50, dose response (AID 1117349); assay type: functional, cell-based
[23] = cytotoxicity toward Colo320 cells – cell-based, CellTiter-Glo luminescence, IC50, dose response (AID 1117334); assay type: functional; conditions: COLO 320

RNA-editing ligase 1, mitochondrial, sequence (P86926 whole entry): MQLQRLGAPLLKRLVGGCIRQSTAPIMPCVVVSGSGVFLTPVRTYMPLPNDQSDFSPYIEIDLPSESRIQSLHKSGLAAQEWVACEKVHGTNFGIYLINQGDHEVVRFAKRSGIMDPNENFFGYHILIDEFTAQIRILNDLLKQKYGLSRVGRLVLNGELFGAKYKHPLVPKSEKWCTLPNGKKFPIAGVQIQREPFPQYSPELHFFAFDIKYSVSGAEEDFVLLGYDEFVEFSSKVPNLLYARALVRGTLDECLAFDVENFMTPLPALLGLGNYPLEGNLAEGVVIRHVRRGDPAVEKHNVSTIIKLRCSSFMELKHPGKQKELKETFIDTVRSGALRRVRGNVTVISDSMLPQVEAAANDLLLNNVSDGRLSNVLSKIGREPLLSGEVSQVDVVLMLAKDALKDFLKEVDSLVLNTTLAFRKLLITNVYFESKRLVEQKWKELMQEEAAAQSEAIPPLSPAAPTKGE

C[C@H](CO)N1C[C@H](C)[C@H](CN(C)S(=O)(=O)c2ccc(F)cc2)Oc2ccc(NS(=O)(=O)c3ccc(Cl)cc3)cc2C1=O
AC50 (HEK293): 18.9 µM (active)
AC50 [1]: 18.9 µM (active)
AC50 [2]: 10 µM (active)
AC50 [3]: > 39 µM (inactive)

CCCNC(=O)N1[C@H](C#N)[C@H](c2ccc(-c3cccnc3)cc2)[C@@H]1CO
AC50 [4]: 10.2 µM (active)
AC50 [5]: 1.61 µM (active)
AC50 [6]: 0.93 µM (active)
AC50 [7]: 4.97 µM (active)
AC50 [8]: > 70 µM (inactive)

OC[C@@H]1[C@H](c2ccc(/C=C/c3ccccc3)cc2)[C@H]2CN(CCC(F)(F)F)CCCCN12
AC50 [9]: 17.4 µM (active)

Oc1ccc(C2CCN(c3ccnc4ccccc34)C2)cc1O (centres undefined)
IC50 [10]: 0.93 µM (active)

COc1ccc2c3c(n(C)c2c1)[C@H](CO)N(C(C)=O)CC31CCN(C(=O)Nc2ccccc2F)CC1
AC50 [11]: 6.63 µM (active)

C[C@H](CO)N1C[C@H](C)[C@@H](CN(C)C(=O)Nc2ccc(C(F)(F)F)cc2)Oc2c(NC(=O)c3ccc(-c4nccs4)cc3)cccc2C1=O
AC50 [12]: 6.41 µM (active)

COC(=O)C1=C(C)N(Cc2ccccc2C(F)(F)F)C(NCc2ccc(OC)cc2)=NC1c1cccc(F)c1 (centres undefined)
IC50 [13]: > 96.6 µM (inactive)

O=C(NOCC1CC1)c1ccc(F)c(F)c1Nc1ccc(I)cc1Cl [CI-1040]
IC50 [14]: 0.0263 µM (active)
IC50 [15]: 0.0171 µM (active)
IC50 [16]: 0.00179 µM (active)
IC50 [17]: > 10 µM (inactive)
IC50 [18]: 0.00319 µM (active)
IC50 [19]: 0.00495 µM (active)
IC50 [20]: 2.16 µM (active)
IC50 [21]: 0.969 µM (active)
IC50 [22]: > 10 µM (inactive)
IC50 [23]: 0.848 µM (active)
